Earlier results, collected in US8691198B2, “Environmentally benign plasticizers based on derivatives of acetone” (priority 2010, dated 2014).
Read-outs that look alike come from different tables or passages of the source.

Columns and labels:
[1] = tested on: rat
[2] = degradation through oxidation forming phosphoric acid and the corresponding alcohols

SMILES: OCC1(O)COC(O)(CO)CO1 (centres unmarked) [1,3-dihydroxyacetone dimer]
- LD50 (oral, rat) ([1]; oral): sixty thousand

SMILES: CCCC(=O)O [Butyric acid]
- LD50(rat) ([1]; left half of Table 1): 2940 mg/kg

SMILES: CCCCCC(=O)O [Caproic acid]
- LD50(rat) × ([1]; right half of Table 1): 3000 mg/kg

SMILES: CCCCCCCC(=O)O [Caprylic acid]
- LD50(rat) × ([1]; in vivo): 600 mg/kg

SMILES: CC(CC(C)(C)C)CP(=O)(O)CC(C)CC(C)(C)C (centres unmarked) [Cyanex 272, Bis-(2,4,4-trimethylpentyl) phosphinic acid, reference compound]
- biodegradability [2]: biodegradable
- LD50(rat) [1]: 3500 mg/kg

SMILES: CCCCCCC(=O)O [Heptanoic Acid]
- LD50(rat) × ([1]; right half of Table 1): 7000 mg/kg

SMILES: CCCCC(=O)O [Pentanoic Acid]
- LD50(rat) ([1]; in vivo): 1844 mg/kg
